# Results from patent US11624093B2, “Tumor suppressor and oncogene biomarkers predictive of anti-immune checkpoint inhibitor response” (Dana-Farber Cancer Institute, Inc., priority 2014, dated 2023).
# Tests used:
# [1] = test system: Kras mutant mice, total lung and tumor infiltrating immune cells; test: Immune cell analysis of lungs of Kras mutant mice treated with the arginase inhibitor; assay type: in vivo, mouse; conditions: 30 mg/kg once daily gavage, 1 week
# Description: (§1) All EGFR transgenic mice carrying tetracycline inducible human EGFR cDNA were previously generated, crossed with CC10-RTTA mice expressing reverse tetracycline activator from lung Clara cell CC10 promoter, and maintained in mixed background. Double positive progeny were fed with doxycycline diet starting at 5-6 weeks of age for the induction of tumors and maintained on doxycyline throughout the study. EGFR and KrasG12D mice were maintained in mixed (C57Bl/6, FVB, and S129) background and given adeno virus expressing Cre recombinase (5×10^6 titer) intranasally at 5 weeks of age for induction of recombination and tumor formation. All breedings and in vivo experiments were performed with the approval of the DFC1 Animal Care and Use Committee.
# (§2) The arginase inhibitor (R)-2-Amino-6-borono-2-(2-(piperidin-1-yl)ethyl)hexanoic acid, also known as compound HY-15775/compound 9, was obtained from MedChem Express and is well known in the art (see, for example, Van Zandt et al. (2013) J. Med. Chem. 56:2568-2580). The compound was administered to mice at 30 mg/kg in phosphate-buffered saline (PBS) via oral gavage once daily.
# Total lung cell and tumor infiltrating immune cell characterization was performed as described in Akbay et al. (2013) Cancer Discov. 3:1355-1363.
# [2] = test system: lung tumors of Kras^G12D mice; test: MRI lung tumor volume quantification in Kras^G12D mice treated with the arginase inhibitor; assay type: in vivo, mouse; conditions: 30 mg/kg once daily gavage, 1 week
# Description: as §1, §2
# Animals were anesthetized with 1.5-2% isoflurane (IsoFlo; Abbott) in 100% oxygen. […] Tumor volume quantifications were performed using 3D-Slicer software as described in Weaver et al. (2012) Cancer Res. 72:921-933.
smiles,measurement,setting,value
"N[C@](CCCCB(O)O)(CCN1CCCCC1)C(=O)O [compound 9/HY-15775, (R)-2-Amino-6-borono-2-(2-(piperidin-1-yl)ethyl)hexanoic acid]",CD8 T cells in the total T cell population,[1],increase
same,CD11c and CD11b myeloid populations,[1],no change
same,ratio of CD4 T cells in the total T cell population,[1],decrease
same,ratio of CD8 to FoxP3 cells (cytotoxic T cells to regulatory T cells),[1],increase
same,total T cell counts,[1],increase
same,"lung tumor volumes (change compared to baseline, MRI)",[2],decreases
